Test results as given in article PMC11974928 (bioRxiv, 2025).

Tested on: GL261 cells
Test: Orthotopic GL261 allograft survival
Type: in vivo, mouse
Settings: C57BL/6, 25 mg/kg 3x weekly, compared to vehicle

Structure (SMILES): CCN1CCN(Cc2ccc(Nc3ncc(F)c(-c4cc(F)c5nc(C)n(C(C)C)c5c4)n3)nc2)CC1 [Abemaciclib]
- overall survival of glioma-bearing mice: effective
